Data taken from patent US20080193402A1, “Depilatory Compositions” (priority 2005, published 2008).

Experiment: 2AET storage stability at 40° C. in different packages
Format: physicochemical
Experimental: The single phase depilatory was then packaged into two separate containers. The first was an aluminum can with a bag-on-valve system, while the second was a standard high density polyethylene bottle.
The 2AET levels were evaluated at initial, 1 month and 3 months after storage at 40° C. to determine stability profiles.

2AET level (Example 13 single phase depilatory in HDPE (full), 1 month/40° C.): 6.7% | 2AET level (Example 13 single phase depilatory in HDPE (full), 3 months/40° C.): 6.6% | 2AET level (Example 13 single phase depilatory in HDPE (full), initial): 7.2% | 2AET level (Example 13 single phase depilatory in HDPE (half), 1 month/40° C.): 6.3% | 2AET level (Example 13 single phase depilatory in HDPE (half), 3 months/40° C.): 5.9% | 2AET level (Example 13 single phase depilatory in HDPE (half), initial): 7.1% | 2AET level (Example 13 single phase depilatory in aluminum can with bag-on-valve, 1 month/40° C.): 7.3% | 2AET level (Example 13 single phase depilatory in aluminum can with bag-on-valve, 3 months/40° C.): 7.3% | 2AET level (Example 13 single phase depilatory in aluminum can with bag-on-valve, initial): 7.3%
SMILES: NCCS [Example 2AET, 2-aminoethanethiol]
